Laboratory results: publication PMC9780888, “4-Isobutylmethcathinone—A Novel Synthetic Cathinone with High In Vitro Cytotoxicity and Strong Receptor Binding Preference of Enantiomers” (Pharmaceuticals, 2022)
Where a name gives a salt, the structure may show the parent alone.

Tested on: SH-SY5Y
Assay: WST-1 viability assay, SH-SY5Y cells
Type: cell-based, human
Details: 72 h incubation, WST-1, four replicates
Method: Based on the novelty of the IMBcat compound, we aimed to evaluate its in vitro cytotoxicity in selected model cell lines as well as to determine the toxicity of the IBMcat enantiomers, since both the chemical structure and chirality of compounds could play a role in their bioactivity (Table 2). The cytotoxic profile of the IBMcat was determined by a WST-1 viability assay after 72-h treatment. For this purpose, cell lines derived from distinct tissues, often affected by NPSs, were chosen, i.e., cells of kidney, hepatic, neural, urinary, and intestinal origin as well as keratinocytes and primary fibroblasts (HEK 293T, Hep G2, HMC-3, SH-SY5Y, 5637, CaCo-2, HaCaT, MRC-5, and BJ, respectively). The cytotoxicity of IBMcat and its enantiomers was concentration- and cell-line dependent, the IC50 values, which were in the micromolar range, are given in Table 2. […] This was followed by embryonic kidney cells HEK 293T (immortalized), in which the toxicity ranged between a concentration of 123 and 192 µM.
In this study, the following cell lines were used: HEK 293T, Hep G2, HMC-3, SH-SY5Y, 5637, CaCo-2, HaCaT, MRC-5, BJ, and L929. […] The selected cell lines were chosen so that not only primary noncancerous cells are evaluated but also cells derived from tissues, which are the most often affected by novel synthetic drugs, i.e., kidney, liver, urinary bladder, and nervous tissue. […]
The cytotoxicity of IBMCat was evaluated in vitro by using a WST-1 viability assay (Sigma-Aldrich, Saint Louis, MO, USA) based on the transformation of a tetrazolium salt into colored formazan in metabolically active cells. […] After 72 h of additional incubation of the cells, their viability was determined by WST-1. […] The cells were incubated for 2 h, after which absorbance of the raised formazan was measured spectrophotometrically at 450 nm (reference wavelength of 630 nm) using a UV-Vis spectrometer (Bio-Rad Laboratories, Hercules, CA, USA). […] The half-maximal inhibitory concentrations (IC50) were calculated from the measured dose–response curves by AAT Bioquest.

| SMILES | IC50 (Homo sapiens) [µM] | IC50 [µM] |
| --- | --- | --- |
| CNC(C)C(=O)c1ccc(CC(C)C)cc1.Cl (stereo not drawn) [IBMcat, 4-isobutylmethcathinone hydrochloride] | 44 ± 5 | – |
| CN[C@H](C)C(=O)c1ccc(CC(C)C)cc1 [R-IBMCat] | – | 52 ± 4 |
| CN[C@@H](C)C(=O)c1ccc(CC(C)C)cc1 [S-IBMCat, (S)-4-isobutylmethcathinone hydrochloride] | 50 ± 1 | – |
